pIC50: −log10 of the molar value.
What was measured:
[1] = test system: human leukemia cell Nomo-1; test: Cancer cell growth, Cell Titer-Glo cell viability assay, 72 hours; format: cell-based; conditions: Homo sapiens; Nomo-1, 72 hours
In short: (§1)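 Viable cell number was determined by quantifying cellular ATP with a CellTiter-Glo luminescence kit. GI50 and IC50 values were calculated from these ATP-based viability readings.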

[2] = test system: acute myeloid leukemia cell line MV4-11; test: as above; format: cell-based; conditions: Homo sapiens; MV4-11, 72 hours
In short: as §1

[3] = test system: acute promyelocytic leukemia cell line NB-4; test: as above; format: cell-based; conditions: NB4, 72 hours
In short: as §1

[4] = test system: human small cell lung cancer cell H209; test: as above; format: cell-based; conditions: NCI-H209, H209, 72 hours
In short: as §1

[5] = test system: acute megakaryoblastic leukemia CMK; test: as above; format: cell-based
In short: as §1

[6] = test system: human lung cancer cell H3122; test: as above; format: cell-based; conditions: NCI-H3122, H3122, 72 hours
In short: as §1

[7] = test system: acute myeloid leukemia cell line MOLM13; test: as above; format: cell-based; conditions: Homo sapiens; MOLM-13, 72 hours
In short: as §1

[8] = test system: human lung adenocarcinoma cell H1395; test: as above; format: cell-based; conditions: NCI-H1395, H1395, 72 hours
In short: as §1

[9] = test system: human breast cancer cell MDA-MB-231; test: as above; format: cell-based; conditions: MDA-MB-231, 72 hours
In short: as §1

hamster ovary cell CHO = test: as above; format: cell-based
In short: as §1

[10] = test system: acute B cell leukemia cell line MEC-1; test: as above; format: cell-based; conditions: Homo sapiens, MEC1; MEC-1, 72 hours
In short: as §1

[11] = test system: histiocytic lymphoma U-937; test: as above; format: cell-based; conditions: Homo sapiens; U-937, 72 hours
In short: as §1

[12] = test system: human breast cancer cell MCF-7; test: as above; format: cell-based; conditions: MCF7, MCF-7, 72 hours
In short: as §1

[13] = test system: acute myelocytic leukemia (AML) OCI-AML-3; test: as above; format: cell-based; conditions: Homo sapiens, OCI-AML-3; OCI-AML3, 72 hours
In short: as §1

[14] = test system: MV4-11 acute granulocyte leukemia cells; test: Human acute granulocyte leukemia MV4-11 mouse model, subcutaneous tumor; format: in vivo, mice
Protocol: 24 Bal b/c female mice, 4-6 weeks, were purchased from Shanghai Slack Laboratory Animals Co., Ltd. and kept in SPF laboratory. The drinking water and padding were aseptically treated by autoclaving. All operations were carried out under aseptic conditions. On day 0, 5×10^6MV4-11 acute granulocyte leukemia cells (purchased from ATCC) were subcutaneously injected into the left side of all mice' back. Starting on day 15, all mice were divided into four groups (6 mice per group), methyl cellulose (HKI) solvent was orally administered to the first group of mice per day; compound 1 at a dose of 10 mg/kg mice body weight was orally administered to the second group of mice per day; compound 1 at a dose of 20 mg/kg mice body weight was orally administered to the third group of mice per day; compound 1 at a dose of 30 mg/kg mice body weight was orally administered to the fourth group of mice per day. From the start of administration, the length/width of the subcutaneous tumor was measured with a vernier caliper every day, and the body weight of the mouse was recorded every day, and the effect of compound 1 on the body weight of the mouse was observed. On day 43, the mice were sacrificed, subcutaneous tumors were taken out, and tumors were weighed and compared, and then a sample of protein lysate was prepared from the tumor sample tissue for use. The trend of subcutaneous tumor growth was counted within day 16 to day 43, and the tumor volume was calculated as: length×width×width/2 mm^3.

- GI50 [1]: 45 nM
- GI50 [2]: 14 nM
- GI50 [3]: 35 nM
- pIC50 [4]: 7.07
- GI50 [5]: 49 nM
- pIC50 [6]: 7.96
- GI50 [7]: 25 nM
- pIC50 [8]: 6.92
- pIC50 [9]: 7.13
- GI50 [10]: 47 nM
- GI50 [11]: 17 nM
- pIC50 [12]: 8.22
- GI50 [13]: 33 nM
SMILES: COC[C@@H](C)N[C@H]1CC[C@H](Nc2cc(-c3csc(NCC4(C#N)CCOCC4)n3)c(Cl)cn2)CC1 [Compound 1, 4-(((4-(5-chloro-2-(((1R,4r)-4-(((R)-1-methoxypropyl-2-yl)amino)cyclohexyl)amino)pyridin-4-yl)thiazol-2-yl)amino)methyl)tetrahydro-2H-pyran-4-carbonitrile]
- inhibitory effect on normal cell CHO (in words) (hamster ovary cell CHO; CHO cells): no inhibitory effect
- GI50 (hamster ovary cell CHO; CHO, 72 hours): 1600 nM
- growth of subcutaneous tumors (in words) ([14]; 10, 20, 30 mg/kg orally per day, Bal b/c mice): effective in inhibiting the growth of subcutaneous tumors
- tumor growth inhibition (TGI) ([14]; high dose group (20, 30 mg/kg), orally per day, day 15 to day 43, Bal b/c mice): 98.7%
- weight of the subcutaneous tumor ([14]; low dose group (10 mg/kg), orally per day, Bal b/c mice): significantly reduced

Reference: US10952999B2, “Inhibitor of cyclin-dependent kinase CDK9” (GENFLEET THERAPEUTICS (SHANGHAI) INC., priority 2017, dated 2021)
